Measurements as given in patent publication US12428406B2 (PMV Pharmaceuticals, Inc., priority 2019, dated 2025).

Target: T1, p53 Y220C (Homo sapiens, UniProt P04637, Y220C)
T1 construct: The recombinant protein was a truncation mutant containing only amino acids 94-312 of p53; made in house; host or cells: E. coli
Experiment: In vitro DNA binding activity assay (HTRF / TR-FRET): stabilization of p53 Y220C and increase of its DNA binding activity
Format: biochemical
Settings: recombinant His-tagged p53 Y220C DNA binding domain (aa 94-312), biotin-labeled consensus DNA, incubated at 27° C. or 29° C. for 60 min
Method in brief: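 Stabilization of the mutant is inferred from increased binding of His-tagged p53 Y220C to a biotin-labeled consensus DNA, detected by HTRF with europium-streptavidin and APC-anti-His antibody. The concentration giving a 50% rise over compound-free binding is reported as SC150.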

T1 sequence (P04637 94-312, change not shown): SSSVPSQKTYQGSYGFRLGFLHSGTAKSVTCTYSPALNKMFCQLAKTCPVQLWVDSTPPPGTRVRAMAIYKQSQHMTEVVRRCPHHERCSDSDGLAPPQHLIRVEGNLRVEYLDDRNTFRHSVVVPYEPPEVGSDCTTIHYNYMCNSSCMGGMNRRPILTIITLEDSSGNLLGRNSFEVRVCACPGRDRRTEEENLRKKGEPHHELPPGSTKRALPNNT

| SMILES | SC150 (concentration of the compound required to increase the DNA binding activity by 50%) |
| --- | --- |
| COc1cc(C(=O)NC(CCO)CCO)ccc1NCC#Cc1cc2c(N[C@@H]3CCN(C)C[C@@H]3F)cccc2n1CC(F)(F)F [Compound 965A, N-(1,5-dihydroxypentan-3-yl)-4-{[3-(4-{[(3S,4R)-3-fluoro-1-methylpiperidin-4-yl]amino}-1-(2,2,2-trifluoroethyl)-1H-indol-2-yl)prop-2-yn-1-yl]amino}-3-methoxybenzamide] | + (+ = 0 μM ≤ SC150 < 0.05 μM) |
| COc1cc(C(N)=O)ccc1NCC#Cc1cc2c(N[C@@H]3CCNC[C@@H]3F)cccc2n1CC(F)(F)F [Compound 849A, 4-{[3-(4-{[(3S,4R)-3-fluoropiperidin-4-yl]amino}-1-(2,2,2-trifluoroethyl)-1H-indol-2-yl)prop-2-yn-1-yl]amino}-3-methoxybenzamide] | + (+ = 0 μM ≤ SC150 < 0.05 μM) |
| COc1cc(S(C)(=O)=O)ccc1NCC#Cc1cc2c(NC3CCC(=O)CC3)cccc2n1CC(F)(F)F [Compound 66A, 4-[(2-{3-[(4-methane-sulfonyl-2-methoxy-phenyl)amino]prop-1-yn-1-yl}-1-(2,2,2-trifluoroethyl)-1H-indol-4-yl)amino]cyclo-hexan-1-one] | + (+ = 0 μM ≤ SC150 < 0.05 μM) |
| COc1cc(C(=O)O)ccc1NCC#Cc1cc2c(N[C@@H]3CCNC[C@@H]3F)cccc2n1CC(F)(F)F [Compound 858A] | + (+ = 0 μM ≤ SC150 < 0.05 μM) |
| COc1cc(C(=O)NC(C)C)ccc1NCC#Cc1cc2c(N[C@H]3CCN(C)C[C@H]3F)cccc2n1CC(F)(F)F (racemic) [Compound 817A, rac-4-{[3-(4-{[(3R,4S)-3-fluoro-1-methylpiperidin-4-yl]amino}-1-(2,2,2-trifluoroethyl)-1H-indol-2-yl)prop-2-yn-1-yl]amino}-3-methoxy-N-(propan-2-yl)benzamide] | + (+ = 0 μM ≤ SC150 < 0.05 μM) |
| CN1CC[C@@H](Nc2cccc3c2cc(C#CCNC(=O)C2CC2)n3CC(F)(F)F)[C@@H](F)C1 [Compound 951A, N-[3-(4-{[(3S,4R)-3-fluoro-1-methylpiperidin-4-yl]amino}-1-(2,2,2-trifluoroethyl)-1H-indol-2-yl)prop-2-yn-1-yl]cyclopropanecarboxamide] | + (+ = 0 μM ≤ SC150 < 0.05 μM) |
| COC(=O)COc1cc(S(C)(=O)=O)ccc1NCC#Cc1cc2c(N[C@H]3CC[C@H](N4CC5(CCOCC5)C4)CC3)cccc2n1CC(F)(F)F [Compound 309A, methyl 2-(2-((3-(4-((4-(7-oxa-2-azaspiro[3.5]nonan-2-yl)cyclohexyl)amino)-1-(2,2,2-trifluoroethyl)-1H-indol-2-yl)prop-2-yn-1-yl)amino)-5-(methylsulfonyl)phenoxy)acetate] | + (+ = 0 μM ≤ SC150 < 0.05 μM) |
| CCOc1cc(C(N)=O)ccc1NCC#Cc1cc2c(N[C@@H]3CCN(C)C[C@@H]3F)cccc2n1CC(F)(F)F [Compound 1059A, 3-ethoxy-4-{[3-(4-{[(3S,4R)-3-fluoro-1-methylpiperidin-4-yl]amino}-1-(2,2,2-trifluoroethyl)-1H-indol-2-yl)prop-2-yn-1-yl]amino}benzamide] | + (+ = 0 μM ≤ SC150 < 0.05 μM) |
| COc1cc(S(C)(=O)=O)ccc1NCC#Cc1cc2c(N[C@H]3CCN(C(C)=O)[C@@H](C)C3)cccc2n1CC(F)(F)F (stereo in doubt) [Compound 739A, 1-{4-[(2-{3-[(4-methanesulfonyl-2-methoxyphenyl)amino]prop-1-yn-1-yl}-1-(2,2,2-trifluoroethyl)-1H-indol-4-yl)amino]-2-methylpiperidin-1-yl}ethan-1-one] | + (+ = 0 μM ≤ SC150 < 0.05 μM) |
| COc1cc(S(C)(=O)=O)ccc1NCC#Cc1cc2c(NC3CCN(CCCS(C)(=O)=O)CC3)cccc2n1CC(F)(F)F [Compound 706A, 2-{3-[(4-methanesulfonyl-2-methoxyphenyl)amino]prop-1-yn-1-yl}-N-[1-(3-methanesulfonylpropyl)piperidin-4-yl]-1-(2,2,2-trifluoroethyl)-1H-indol-4-amine] | + (+ = 0 μM ≤ SC150 < 0.05 μM) |
| COCCOc1cc(S(C)(=O)=O)ccc1NCC#Cc1cc2c(N[C@H]3CC[C@H](N(C)C)CC3)cccc2n1CC(F)(F)F [Compound 89A, (1R,4R)-N^4-[2-(3-{[4-methanesulfonyl-2-(2-methoxyethoxy)phenyl]amino}prop-1-yn-1-yl)-1-(2,2,2-trifluoro-ethyl)-1H-indol-4-yl]-N^1,N^1-dimethylcyclo-hexane-1,4-diamine] | + (+ = 0 μM ≤ SC150 < 0.05 μM) |
| COc1cc(S(N)(=O)=O)ccc1NCC#Cc1cc2c(N[C@H]3CCN(C(C)=O)[C@@H](C)C3)cccc2n1CC(F)(F)F [Compound 740A, 4-{[3-(4-{[(2S, 4S)-1-acetyl-2-methylpiperidin-4-yl]amino}-1-(2,2,2-trifluoroethyl)-1H-indol-2-yl)prop-2-yn-1-yl]amino}-3-methoxybenzene-1-sulfonamide] | + (+ = 0 μM ≤ SC150 < 0.05 μM) |
| CCN(CC)[C@H]1CC[C@H](Nc2cccc3c2cc(C#CCNc2ccc(S(=O)(=O)NC)cc2OC)n3CC(F)(F)F)CC1 [Compound 148A, 3-methoxy-N-methyl-4-{[3-(4-{[(1R,4R)-4-(diethylamino)cyclohexyl]amino}-1-(2,2,2-trifluoroethyl)-1H-indol-2-yl)prop-2-yn-1-yl]amino}benzene-1-sulfonamide] | + (+ = 0 μM ≤ SC150 < 0.05 μM) |
| CNC(=O)c1cc(OC)c(NCC#Cc2cc3c(NC4CCN(CC(O)COC)CC4)cccc3n2CC(F)(F)F)cc1F (stereo not shown) [Compound 690A, 2-fluoro-4-{[3-(4-{[1-(2-hydroxy-3-methoxypropyl)piperidin-4-yl]amino}-1-(2,2,2-trifluoroethyl)-1H-indol-2-yl)prop-2-yn-1-yl]amino}-5-methoxy-N-methylbenzamide] | + (+ = 0 μM ≤ SC150 < 0.05 μM) |
| COc1cc(C(=O)O)ccc1NCC#Cc1cc2c(N[C@H]3CCN(C)C[C@@H]3F)cccc2n1CC(F)(F)F (racemic) [Compound 833A, rac-4-{[3-(4-{[(3R,4R)-3-fluoro-1-methylpiperidin-4-yl]amino}-1-(2,2,2-trifluoroethyl)-1H-indol-2-yl)prop-2-yn-1-yl]amino}-3-methoxybenzoic acid] | ++ (++ = 0.05 μM ≤ SC150 < 0.1 μM) |
| COc1cc(S(=O)(=O)Nc2ccon2)ccc1NCC#Cc1cc2c(NC3CCN(C)CC3)cccc2n1CC(F)(F)F [Compound 469A, 3-methoxy-4-[(3-{4-[(1-methylpiperidin-4-yl)amino]-1-(2,2,2-trifluoroethyl)-1H-indol-2-yl}prop-2-yn-1-yl)amino]-N-(1,2-oxazol-3-yl)benzene-1-sulfonamide] | + (+ = 0 μM ≤ SC150 < 0.05 μM) |
| COc1cc(S(C)(=O)=O)ccc1NCC#Cc1cc2c(N[C@H]3CCOC[C@H]3F)cccc2n1CC(F)(F)F (racemic) [Compound 1022A, rac-N-[(3R,4R)-3-fluorooxan-4-yl]-2-{3-[(4-methanesulfonyl-2-methoxyphenyl)amino]prop-1-yn-1-yl}-1-(2,2,2-trifluoroethyl)-1H-indol-4-amine] | + (+ = 0 μM ≤ SC150 < 0.05 μM) |
| COC(=O)c1ccc(NCC#Cc2cc3c(N[C@H]4CCN(C[C@@H](C)O)C[C@H]4F)cccc3n2CC(F)(F)F)c(OC)c1 [Compound 905A, methyl 4-{[3-(4-{[(3R,4S)-3-fluoro-1-(2-hydroxypropyl)piperidin-4-yl]amino}-1-(2,2,2-trifluoroethyl)-1H-indol-2-yl)prop-2-yn-1-yl]amino}-3-methoxybenzoate] | + (+ = 0 μM ≤ SC150 < 0.05 μM) |
| N#CCOc1cc(S(N)(=O)=O)ccc1NCC#Cc1cc2c(N[C@H]3CC[C@H](N4CC5(CCOCC5)C4)CC3)cccc2n1CC(F)(F)F [Compound 299A, 3-(cyanomethoxy)-4-{[3-(4-{[(1R,4R)-4-{7-oxa-2-azaspiro[3.5]nonan-2-yl}cyclo-hexyl]amino}-1-(2,2,2-trifluoroethyl)-1H-indol-2-yl)prop-2-yn-1-yl]amino}benzene-1-sulfonamide] | + (+ = 0 μM ≤ SC150 < 0.05 μM) |
| COc1cc(S(N)(=O)=O)ccc1NCC#Cc1cc2c(N[C@@H]3CCN(C[C@H](COC(C)=O)OC(C)=O)C[C@@H]3F)cccc2n1CC(F)(F)F [Compound 890A, (2R)-1-(acetyloxy)-3-[(3S,4R)-3-fluoro-4-[(2-{3-[(2-methoxy-4-sulfamoylphenyl)amino]prop-1-yn-1-yl}-1-(2,2,2-trifluoroethyl)-1H-indol-4-yl)amino]piperidin-1-yl]propan-2-yl acetate] | + (+ = 0 μM ≤ SC150 < 0.05 μM) |
| CCC(=O)OCC(CN1CCC(Nc2cccc3c2cc(C#CCNc2ccc(S(N)(=O)=O)cc2OC)n3CC(F)(F)F)CC1)OC(=O)CC (stereo not shown) [Compound 587A, 1-{4-[(2-{3-[(2-methoxy-4-sulfamoylphenyl)amino]prop-1-yn-1-yl}-1-(2,2,2-trifluoroethyl)-1H-indol-4-yl)amino]piperidin-1-yl}-3-(propanoyloxy)propan-2-yl propanoate] | + (+ = 0 μM ≤ SC150 < 0.05 μM) |
| COc1cc(S(C)(=O)=O)ccc1NCC#Cc1cc2c(N[C@H]3CC[C@H](N4CC5(COC5)C4)CC3)cccc2n1CC(F)(F)F [Compound 202A, 2-{3-[(4-methanesulfonyl-2-methoxyphenyl)amino]prop-1-yn-1-yl}-N-[(1R,4R)-4-{2-oxa-6-azaspiro[3.3]heptan-6-yl}cyclohexyl]-1-(2,2,2-trifluoroethyl)-1H-indol-4-amine] | + (+ = 0 μM ≤ SC150 < 0.05 μM) |
